Results published in patent US10519152B2, “Compounds and their use in treating cancer” (AstraZeneca AB, priority 2017, dated 2019).

target: T1, recombinant human Estrogen Receptor alpha ligand binding domain, residues 307-554 (ER alpha-LBD (GST)) (Homo sapiens, UniProt P03372); experiment: ERα binding assay (LanthaScreen TR-FRET competition); conditions: TR-FRET competition with Fluormone ES2 tracer, 4 hours at room temperature; single experiment or average of two or more
T1 construct: made in house
T1 sequence (P03372 307-554): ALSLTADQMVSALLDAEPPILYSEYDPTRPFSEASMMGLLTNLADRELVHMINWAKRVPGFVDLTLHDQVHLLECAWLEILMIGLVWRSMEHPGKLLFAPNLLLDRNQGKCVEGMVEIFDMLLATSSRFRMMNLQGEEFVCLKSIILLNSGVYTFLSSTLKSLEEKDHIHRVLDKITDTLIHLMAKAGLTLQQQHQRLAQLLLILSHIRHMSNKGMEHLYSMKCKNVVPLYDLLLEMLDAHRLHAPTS

Going from `Cc1ncsc1-c1ccc(CNC(=O)C2CC(O)CN2C(=O)C(NC(=O)COCCOc2cc(F)c(C3c4[nH]c5ccccc5c4CC(C)N3CC(C)(C)F)c(F)c2)C(C)(C)C)cc1` [Example 40, (2S,4R)-1-((S)-2-(2-(2-(3,5-Difluoro-4-((1R,3R)-2-(2-fluoro-2-methylpropyl)-3-methyl-2,3,49-tetrahydro-1H-pyrido[3,4-b]indol-1-yl)phenoxy)ethoxy)acetamido)-3,3-dimethylbutanoyl)-4-hydroxy-N-(4-(4-methylthiazol-5-yl)benzyl)pyrrolidine-2-carboxamide] to `Cc1ncsc1-c1ccc(CNC(=O)[C@@H]2C[C@@H](O)CN2C(=O)[C@@H](NC(=O)COCCOCCCCOc2cc(F)c([C@@H]3c4[nH]c5ccccc5c4C[C@@H](C)N3CC(C)(C)F)c(F)c2)C(C)(C)C)cc1` [Example 128, (2S,4R)-1-((S)-2-(2-(2-(4-(3,5-Difluoro-4-((1R,3R)-2-(2-fluoro-2-methylpropyl)-3-methyl-2,3,4,9-tetrahydro-1H-pyrido[3,4-b]indol-1-yl)phenoxy)butoxy)ethoxy)acetamido)-3,3-dimethylbutanoyl)-4-hydroxy-N-(4-(4-methylthiazol-5-yl)benzyl)pyrrolidine-2-carboxamide], the IC50 falls from 1.3 nM to 0.6 nM (2.2-fold). The second is the more potent here.

First: Cc1ncsc1-c1ccc(CNC(=O)[C@@H]2C[C@@H](O)CN2C(=O)[C@@H](NC(=O)COCCCCC(=O)N(C)CCOc2cc(F)c([C@@H]3c4[nH]c5ccccc5c4C[C@@H](C)N3CC(C)(C)F)c(F)c2)C(C)(C)C)cc1 [Example 143, (2S,4R)-1-((S)-2-(2-((5-((2-(3,5-Difluoro-4-((1R,3R)-2-(2-fluoro-2-methylpropyl)-3-methyl-2,3,4,9-tetrahydro-1H-pyrido[3,4-b]indol-1-yl)phenoxy)ethyl)(methyl)amino)-5-oxopentyl)oxy)acetamido)-3,3-dimethylbutanoyl)-4-hydroxy-N-(4-(4-methylthiazol-5-yl)benzyl)pyrrolidine-2-carboxamide]
Second: Cc1ncsc1-c1ccc(CNC(=O)[C@@H]2C[C@@H](O)CN2C(=O)[C@@H](NC(=O)COCCCOCCCCCOc2cc(F)c([C@@H]3c4[nH]c5ccccc5c4C[C@@H](C)N3CC(C)(C)F)c(F)c2)C(C)(C)C)cc1 [Example 138, (2S,4R)-1-((S)-2-(2-(3-((5-(3,5-Difluoro-4-((R,3R)-2-(2-fluoro-2-methylpropyl)-3-methyl-2,3,4,9-tetrahydro-1H-pyrido[3,4-b]indol-1-yl)phenoxy)pentyl)oxy)propoxy)acetamido)-3,3-dimethylbutanoyl)-4-hydroxy-N-(4-(4-methylthiazol-5-yl)benzyl)pyrrolidine-2-carboxamide]
The IC50 of the first is 1.8-fold higher: 1.1 nM for the first, 0.6 nM for the second.

Going from `Cc1ncsc1-c1ccc(CNC(=O)[C@@H]2C[C@@H](O)CN2C(=O)[C@@H](NC(=O)C(F)(F)OCCCCCCOc2cc(F)c([C@@H]3c4[nH]c5ccccc5c4C[C@@H](C)N3CC(C)(C)F)c(F)c2)C(C)(C)C)cc1` [Example 116, (2S,4R)-1-((S)-2-(2-((6-(3,5-Difluoro-4-((1R,3R)-2-(2-fluoro-2-methylpropyl)-3-methyl-2,3,4,9-tetrahydro-1H-pyrido[3,4-b]indol-1-yl)phenoxy)hexyl)oxy)-2,2-difluoroacetamido)-3,3-dimethylbutanoyl)-4-hydroxy-N-(4-(4-methylthiazol-5-yl)benzyl)pyrrolidine-2-carboxamide] to `Cc1ncsc1-c1ccc(CNC(=O)[C@@H]2C[C@@H](O)CN2C(=O)[C@@H](NC(=O)CCCCCOCCCCOc2cc(F)c([C@@H]3c4[nH]c5ccccc5c4C[C@@H](C)N3CC(C)(C)F)c(F)c2)C(C)(C)C)cc1` [Example 109, (2S,4R)-1-((S)-2-(6-(4-(3,5-difluoro-4-((1R,3R)-2-(2-fluoro-2-methylpropyl)-3-methyl-2,3,49-tetrahydro-1H-pyrido[3,4-b]indol-1-yl)phenoxy)butoxy)hexanamido)-3,3-dimethylbutanoyl)-4-hydroxy-N-(4-(4-methylthiazol-5-yl)benzyl)pyrrolidine-2-carboxamide], the IC50 falls from 1 nM to 0.6 nM (1.7-fold).

Going from `COC(=O)[C@@H](C)CN1[C@H](c2c(F)cc(OCCOCCOCCOCC(=O)N[C@H](C(=O)N3C[C@H](O)C[C@H]3C(=O)NCc3ccc(-c4scnc4C)cc3)C(C)(C)C)cc2F)c2[nH]c3ccccc3c2C[C@H]1C` [Example 29] to `Cc1ncsc1-c1ccc(CNC(=O)[C@@H]2C[C@@H](O)CN2C(=O)[C@@H](NC(=O)COCCOCCCCCOc2cc(F)c([C@@H]3c4[nH]c5ccccc5c4C[C@@H](C)N3CC(C)(F)F)c(F)c2)C(C)(C)C)cc1` [Example 166, (2S,4R)-1-((S)-2-(2-(2-((5-(4-((1R,3R)-2-(2,2-Difluoropropyl)-3-methyl-2,3,4,9-tetrahydro-1H-pyrido[3,4-b]indol-1-yl)-3,5-difluorophenoxy)pentyl)oxy)ethoxy)acetamido)-3,3-dimethylbutanoyl)-4-hydroxy-N-(4-(4-methylthiazol-5-yl)benzyl)pyrrolidine-2-carboxamide], the IC50 falls from 5.9 nM to 0.8 nM (7.4-fold). The second is the more potent here.

`Cc1ncsc1-c1ccc(CNC(=O)[C@@H]2C[C@@H](O)CN2C(=O)[C@@H](NC(=O)COCc2ccnc(COc3cc(F)c([C@@H]4c5[nH]c6ccccc6c5C[C@@H](C)N4CC(C)(C)F)c(F)c3)c2)C(C)(C)C)cc1` [Example 134, (2S,4R)-1-((S)-2-(2-((2-((3,5-Difluoro-4-((1R,3R)-2-(2-fluoro-2-methylpropyl)-3-methyl-2,3,4,9-tetrahydro-1H-pyrido[3,4-b]indol-1-yl)phenoxy)methyl)pyridin-4-yl)methoxy)acetamido)-3,3-dimethylbutanoyl)-4-hydroxy-N-(4-(4-methylthiazol-5-yl)benzyl)pyrrolidine-2-carboxamide] and `Cc1ncsc1-c1ccc(CNC(=O)[C@@H]2C[C@@H](O)CN2C(=O)[C@@H](NC(=O)COCCOc2ccc(COc3cc(F)c([C@@H]4c5[nH]c6ccccc6c5C[C@@H](C)N4CC(C)(C)F)c(F)c3)cc2)C(C)(C)C)cc1` [Example 5, (2S,4R)-1-((S)-2-(2-(2-(4-((3,5-Difluoro-4-((1R,3R)-2-(2-fluoro-2-methylpropyl)-3-methyl-2,3,4,9-tetrahydro-1H-pyrido[3,4-b]indol-1-yl)phenoxy)methyl)phenoxy)ethoxy)acetamido)-3,3-dimethylbutanoyl)-4-hydroxy-N-(4-(4-methylthiazol-5-yl)benzyl)pyrrolidine-2-carboxamide] are within 1.5-fold of each other in IC50: 0.6 nM for the first, 0.8 nM for the second.

First: Cc1ncsc1-c1ccc([C@H](C)NC(=O)[C@@H]2C[C@@H](O)CN2C(=O)[C@@H](NC(=O)C(F)(F)OCCCOCCCOc2cc(F)c([C@@H]3c4[nH]c5ccccc5c4C[C@@H](C)N3CC(C)(C)F)c(F)c2)C(C)(C)C)cc1 [Example 120, (2S,4R)-1-((S)-2-(2-(3-(3-(3,5-Difluoro-4-((1R,3R)-2-(2-fluoro-2-methylpropyl)-3-methyl-2,3,4,9-tetrahydro-1H-pyrido[3,4-b]indol-1-yl)phenoxy)propoxy)propoxy)-2,2-difluoroacetamido)-3,3-dimethylbutanoyl)-4-hydroxy-N—((S)-1-(4-(4-methylthiazol-5-yl)phenyl)ethyl)pyrrolidine-2-carboxamide]
Second: Cc1ncsc1-c1ccc([C@H](C)NC(=O)[C@@H]2C[C@@H](O)CN2C(=O)[C@@H](NC(=O)COCCOCCCCCOc2cc(F)c([C@@H]3c4[nH]c5ccccc5c4C[C@@H](C)N3CC(F)(F)F)c(F)c2)C(C)(C)C)cc1 [Example 140, (2S,4R)-1-((S)-2-(2-(2-((5-(3,5-Difluoro-4-((1R,3R)-3-methyl-2-(2,2,2-trifluoroethyl)-2,3,4,9-tetrahydro-1H-pyrido[3,4-b]indol-1-yl)phenoxy)pentyl)oxy)ethoxy)acetamido)-3,3-dimethylbutanoyl)-4-hydroxy-N—((S)-1-(4-(4-methylthiazol-5-yl)phenyl)ethyl)pyrrolidine-2-carboxamide]
The IC50 of the first is 1.8-fold higher: 0.9 nM for the first, 0.5 nM for the second. The second is the more potent here.

First: Cc1ncsc1-c1ccc(CNC(=O)[C@@H]2C[C@@H](O)CN2C(=O)[C@@H](NC(=O)COCCCC2CN(CCOc3cc(F)c([C@@H]4c5[nH]c6ccccc6c5C[C@@H](C)N4CC(C)(C)F)c(F)c3)C2)C(C)(C)C)cc1 [Example 47, (2S,4R)-1-((S)-2-(2-(3-(1-(2-(3,5-difluoro-4-((1R,3R)-2-(2-fluoro-2-methylpropyl)-3-methyl-2,3,4,9-tetrahydro-1H-pyrido[3,4-b]indol-1-yl)phenoxy)ethyl)azetidin-3-yl)propoxy)acetamido)-3,3-dimethylbutanoyl)-4-hydroxy-N-(4-(4-methylthiazol-5-yl)benzyl)pyrrolidine-2-carboxamide]
Second: Cc1ncsc1-c1ccc(CNC(=O)[C@@H]2C[C@@H](O)CN2C(=O)[C@@H](NC(=O)COCCCCCOCCCOc2cc(F)c([C@@H]3c4[nH]c5ccccc5c4C[C@@H](C)N3CC(C)(C)F)c(F)c2)C(C)(C)C)cc1 [Example 136, (2S,4R)-1-((S)-2-(2-((5-(3-(3,5-Difluoro-4-((1R,3R)-2-(2-fluoro-2-methylpropyl)-3-methyl-2,3,4,9-tetrahydro-1H-pyrido[3,4-b]indol-1-yl)phenoxy)propoxy)pentyl)oxy)acetamido)-3,3-dimethylbutanoyl)-4-hydroxy-N-(4-(4-methylthiazol-5-yl)benzyl)pyrrolidine-2-carboxamide]
The IC50 of the first is 1.7-fold lower: 0.7 nM for the first, 1.2 nM for the second.

For `Cc1ncsc1-c1ccc(CNC(=O)[C@@H]2C[C@@H](O)CN2C(=O)[C@@H](NC(=O)COCC(F)(F)COCCCOc2cc(F)c([C@@H]3c4[nH]c5ccccc5c4C[C@@H](C)N3CC(C)(C)F)c(F)c2)C(C)(C)C)cc1` [Example 125, (2S,4R)-1-((S)-2-(2-(3-(3-(3,5-Difluoro-4-((1R,3R)-2-(2-fluoro-2-methylpropyl)-3-methyl-2,3,4,9-tetrahydro-1H-pyrido[3,4-b]indol-1-yl)phenoxy)propoxy)-2,2-difluoropropoxy)acetamido)-3,3-dimethylbutanoyl)-4-hydroxy-N-(4-(4-methylthiazol-5-yl)benzyl)pyrrolidine-2-carboxamide], the IC50 was 1 nM.
